Assay [1] in a line: HIV-1 Vif–A3G interaction blockers – biochemical, TR-FRET, GST-Vif 1-94, biotin-A3G peptide, dose response retest, primary screen (AID 1117319).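 Note: TR-FRET signal of purified GST-Vif binding a biotinylated A3G peptide; inhibitors lower the FRET signal by blocking Vif and A3G binding.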 It is filed as functional. For orientation: In TR-FRET formats the signal depends on donor and acceptor labels being close together.
A short description of the next assay: cells. It is filed as functional.
A short description of assay [2]: M. tuberculosis growth inhibition, HTS (AID 449762). The class given is functional.
For assay [3], the target named is Voltage-gated inwardly rectifying potassium channel KCNH2 (Homo sapiens, UniProt Q12809). The experiment in a line: concentration-dependent hERG rescue from blockers – cell-based, thallium flux, dose response (AID 2121). It is filed as ADME. On the technique in general: The hERG channel carries a current that helps repolarise heart muscle cells.
Chain of Voltage-gated inwardly rectifying potassium channel KCNH2 (Q12809 whole entry): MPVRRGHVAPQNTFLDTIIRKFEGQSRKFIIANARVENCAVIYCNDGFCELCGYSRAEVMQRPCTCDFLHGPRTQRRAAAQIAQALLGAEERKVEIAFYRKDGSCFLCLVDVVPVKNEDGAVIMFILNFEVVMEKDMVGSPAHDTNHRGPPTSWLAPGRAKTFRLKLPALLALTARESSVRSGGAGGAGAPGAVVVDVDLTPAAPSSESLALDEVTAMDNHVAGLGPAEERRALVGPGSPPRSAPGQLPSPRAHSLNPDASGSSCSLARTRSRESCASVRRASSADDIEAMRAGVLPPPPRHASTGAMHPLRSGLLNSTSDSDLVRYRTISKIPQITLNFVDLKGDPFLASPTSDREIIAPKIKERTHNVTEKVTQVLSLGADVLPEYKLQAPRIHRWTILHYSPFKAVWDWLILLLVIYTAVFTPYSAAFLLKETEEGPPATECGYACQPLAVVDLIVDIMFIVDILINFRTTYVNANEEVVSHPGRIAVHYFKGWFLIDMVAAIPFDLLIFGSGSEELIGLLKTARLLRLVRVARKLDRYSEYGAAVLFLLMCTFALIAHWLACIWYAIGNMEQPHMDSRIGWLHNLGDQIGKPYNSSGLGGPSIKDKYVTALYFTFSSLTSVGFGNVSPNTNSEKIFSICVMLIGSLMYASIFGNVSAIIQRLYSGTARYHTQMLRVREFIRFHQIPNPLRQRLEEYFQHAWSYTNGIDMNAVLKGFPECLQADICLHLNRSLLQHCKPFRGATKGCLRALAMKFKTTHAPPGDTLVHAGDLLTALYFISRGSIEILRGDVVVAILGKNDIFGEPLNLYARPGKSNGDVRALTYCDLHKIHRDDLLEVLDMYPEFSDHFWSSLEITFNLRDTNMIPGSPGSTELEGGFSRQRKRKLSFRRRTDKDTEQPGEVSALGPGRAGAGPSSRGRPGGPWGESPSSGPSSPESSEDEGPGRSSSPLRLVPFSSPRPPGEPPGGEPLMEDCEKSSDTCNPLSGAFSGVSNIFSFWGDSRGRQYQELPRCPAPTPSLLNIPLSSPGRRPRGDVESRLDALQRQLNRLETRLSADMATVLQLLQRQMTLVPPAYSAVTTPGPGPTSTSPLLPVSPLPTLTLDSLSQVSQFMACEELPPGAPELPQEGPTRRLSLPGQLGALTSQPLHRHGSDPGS
Assay [4] concerns the target T1, Corticotropin-releasing factor receptor 2/Corticotropin-releasing factor-binding protein (Homo sapiens, UniProt P24387+Q13324).
T1 sequence (Q13324 whole entry): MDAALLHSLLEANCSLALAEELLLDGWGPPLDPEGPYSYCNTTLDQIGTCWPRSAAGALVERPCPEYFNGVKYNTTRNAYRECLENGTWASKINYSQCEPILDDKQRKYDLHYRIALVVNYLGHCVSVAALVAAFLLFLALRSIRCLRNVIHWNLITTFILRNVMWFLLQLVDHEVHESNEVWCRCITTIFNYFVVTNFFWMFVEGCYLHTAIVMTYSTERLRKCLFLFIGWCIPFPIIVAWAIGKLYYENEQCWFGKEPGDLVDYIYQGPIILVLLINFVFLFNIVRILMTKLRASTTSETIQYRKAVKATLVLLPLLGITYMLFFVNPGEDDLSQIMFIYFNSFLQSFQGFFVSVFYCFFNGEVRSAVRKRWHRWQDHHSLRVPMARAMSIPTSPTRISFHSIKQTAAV
T1 sequence (P24387 whole entry): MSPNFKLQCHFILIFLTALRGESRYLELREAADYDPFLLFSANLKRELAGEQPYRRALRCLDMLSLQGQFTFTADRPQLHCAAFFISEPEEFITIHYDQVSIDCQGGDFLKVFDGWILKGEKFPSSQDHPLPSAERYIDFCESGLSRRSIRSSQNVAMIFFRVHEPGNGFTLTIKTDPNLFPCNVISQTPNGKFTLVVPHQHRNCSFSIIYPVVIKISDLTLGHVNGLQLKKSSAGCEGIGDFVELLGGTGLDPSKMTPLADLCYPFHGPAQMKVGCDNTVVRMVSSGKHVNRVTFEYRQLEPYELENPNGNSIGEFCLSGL
As to the kind of experiment: activators of CRF receptor 2 with binding protein – uHTS hits, confirmation (AID 602473). The conditions noted are these: read-out: EC50_Mean. The class given is functional.

Assay [5] is described as follows: viability inhibitors of stage V gametocytes – luminescence, dose response (AID 1117278).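 Note: gametocytes exposed to compound for 24 hours.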 The class given is functional, cell-based.
The nature of assay [6]: viability loss in human Jurkat cells – cell-based, luminescence, cytotoxicity control for P. falciparum gametocyte viability project, dose response (AID 1117277).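 Note: potency reflects loss of cellular ATP meaning fewer viable cells.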 The class given is functional.
The target in a further assay is Genome polyprotein (Hepatitis C virus, UniProt Q2Q167). The experiment in a line: disruption of hepatitis C core self-association – biochemical, TR-FRET, dose response (AID 2159).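 Note: blocks dimerization of HCV core protein measured by TR-FRET between tagged core106 pairs.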 Also on record: species or system Hepacivirus hominis.
Chain of Genome polyprotein (Q2Q167 whole entry): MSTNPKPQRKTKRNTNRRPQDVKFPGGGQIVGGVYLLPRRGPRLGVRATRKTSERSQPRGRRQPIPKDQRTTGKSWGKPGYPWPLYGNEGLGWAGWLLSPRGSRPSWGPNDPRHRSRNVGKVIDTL
For assay [7], the target named is Induced myeloid leukemia cell differentiation protein Mcl-1 (Homo sapiens, UniProt Q07820). The class given is functional.
Chain of Induced myeloid leukemia cell differentiation protein Mcl-1 (Q07820 whole entry): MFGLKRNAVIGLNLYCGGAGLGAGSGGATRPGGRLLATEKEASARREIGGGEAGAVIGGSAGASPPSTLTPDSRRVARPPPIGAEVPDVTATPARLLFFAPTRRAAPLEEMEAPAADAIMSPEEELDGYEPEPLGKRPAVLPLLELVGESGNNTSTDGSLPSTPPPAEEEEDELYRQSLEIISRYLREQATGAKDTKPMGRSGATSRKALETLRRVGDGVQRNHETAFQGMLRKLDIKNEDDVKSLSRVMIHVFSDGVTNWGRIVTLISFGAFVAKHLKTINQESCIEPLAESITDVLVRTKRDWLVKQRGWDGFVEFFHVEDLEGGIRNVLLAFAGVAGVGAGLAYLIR
The target of assay [8] is T2, Low molecular weight phosphotyrosine protein phosphatase (Homo sapiens, UniProt P24666).
T2 sequence (P24666 whole entry): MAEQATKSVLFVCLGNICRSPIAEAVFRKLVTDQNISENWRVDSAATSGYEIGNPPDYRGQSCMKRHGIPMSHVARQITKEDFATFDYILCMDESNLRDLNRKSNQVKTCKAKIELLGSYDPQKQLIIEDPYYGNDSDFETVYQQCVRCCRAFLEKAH
As to the kind of experiment: inhibition of human LMPTP enzyme activity – biochemical, absorbance, pNPP substrate, LMPTP-A isoform, set 2, orthogonal assay, dose response (AID 743308). It is filed as functional.

In assay [9] the target is T2, Low molecular weight phosphotyrosine protein phosphatase. As to the kind of experiment: inhibition of LMPTP-A enzymatic activity – biochemical, OMFP substrate, fluorescence intensity, set 2, dose response (AID 743307). The class given is functional.
The nature of assay [10]: RKO cell viability reduction, dose response, CellTiter-Glo luminescence (AID 1117322). It is filed as functional. Background: In ATP-based viability assays light output follows the ATP content of the culture.
A short description of assay [11]: HCT116 cell viability decrease, GSK3B pretreatment – CellTiter-Glo, IC50, dose response (AID 1117339). The conditions noted are these: HCT-116. The class given is functional.
Assay [12] can be described thus: CellTiter-Glo luminescence survival assay, SW480 colon tumor line, concentration-response curve, half-maximal inhibitory concentration (AID 1117338). It is filed as functional.
Assay [13] in a line: cytotoxicity toward Colo320 cells – cell-based, CellTiter-Glo luminescence, IC50, dose response (AID 1117334). It is filed as functional. The conditions noted are these: COLO 320.
Assay [14] is described as follows: cytotoxicity toward HCT116 cells – cell-based, CellTiter-Glo luminescence, IC50, dose response (AID 1117332). It is filed as functional. The settings on record: HCT-116.
A short description of assay [15]: cytotoxicity toward HT-29 cells – cell-based, CellTiter-Glo luminescence, IC50, dose response (AID 1117330). The class given is functional.
Assay [16] can be described thus: SNU-C1 cell viability reduction, dose response, CellTiter-Glo luminescence (AID 1117323). It is filed as functional, cell-based.
Assay [17] is described as follows: Reduced DLD-1 viability, concentration-response, CellTiter-Glo luminescence (AID 1117352). The class given is functional.

The IC50 is the concentration needed to halve the response being measured.

Structures are written as SMILES. Activity calls are given as the source filed them. Bounds are passed on as bounds.

Regarding `CC(C)(C)CN1CCNC(=O)C1CC(=O)NCCc1ccccc1C(F)(F)F` (centres undefined), in [1], the IC50 is > 100 µM (active).
Turning to `CCOc1ccc2nc(/N=C/c3nc(-c4ccccc4)oc3O)sc2c1`, the IC50 in “cells” is 3.76 µM (active); in assay [2], > 100 µM (active). The figures for the EC50 in [3] and in assay [4] were 1.69 µM (active) and 14.6 µM (active), respectively.
For the molecule `CCN(CC)S(=O)(=O)c1ccc(N2CCOCC2)c(NC(=O)c2c3c(nc4ccccc24)CCC3)c1`, the IC50 in assay [5] is > 109 µM (inactive); in [6] it was > 83.3 µM (inactive); against Genome polyprotein, > 49.8 µM (not active); in [7] it was 5.07 µM (active).
For `c1ccc(-c2nc(N3CCOCC3)c3ccccc3n2)cc1`, the IC50 in assay [8] and in [9] was > 80 µM (inactive) each time.
Turning to `CC(C)(CO)[C@@H](O)C(=O)NCCC(=O)NCCSSCCNC(=O)CCNC(=O)[C@H](O)C(C)(C)CO`, the IC50 in [10], in assay [11], in assay [12], in assay [13], in [14] and in assay [15] was > 20 µM (inactive) in each case. In addition, the IC50 in assay [16] and in assay [17] was > 20 µM (inactive) each time.

(Values after ChEMBL document CHEMBL1201862, “PubChem BioAssay data set” (2004).)
